In assay [1] the test system is Lactobacillus acidophilus TSP-La1. Description: Antibiotic susceptibility by disk diffusion method. The format is cell-based. Conditions: for zone of inhibition at 30 µg/disc: TSPLA1, 30 μg; for zone of inhibition at 10 µg/disc: TSPLA1, 10 μg; for zone of inhibition at 5 µg/disc: TSPLA1, 5 μg. As for the experimental part:
(§1) In order to ascertain the sensitivity of the thermostable strains in the food products towards antibiotics, Antibiotic susceptibility profile for Lactobacillus acidophilus is created by disk diffusion method. The susceptibility criteria used is established by Charteris et al. The Lactobacillus acidophilus is grown in Man Rogosa Sharpe Agar (MRSA).
67.15 grams is suspended in 1000 ml distilled water and heated to boiling to dissolve the medium completely. It is sterilized by autoclaving at 15 lbs pressure (121° C.) for 20 minutes, mixed well and poured into sterile Petri plates.
The concentration of the tested antibiotics has been included depending upon their minimum inhibitory concentrations.

Assay [2] concerns Lactobacillus plantarum TSP-Lp1. Description: Antibiotic susceptibility by disk diffusion method. The format is cell-based. Conditions: for zone of inhibition at 30 µg/disc: TSPLP1, 30 μg; for zone of inhibition at 10 µg/disc: TSPLP1, 10 μg; for zone of inhibition at 5 µg/disc: TSPLP1, 5 μg. As for the experimental part:
as §1
The same set of study as the previous example is conducted using Lactobacillus plantarum strain of the present disclosure and the results for the study are depicted in Table No. 13 as below. The susceptibility criteria used is established by Charteris et al. The Lactobacillus acidophilus is grown in Man Rogosa Sharpe Agar, […]

The mark [3] stands for this setting: Lactobacillus acidophilus, read-out: MIC Results.
Setting [4] is: Lactiplantibacillus plantarum, read-out: MIC Results.

`CC1(C)S[C@@H]2[C@H](NC(=O)[C@H](N)c3ccc(O)cc3)C(=O)N2[C@H]1C(=O)O` [Amoxicillin]: the Resistant/Sensitive entry in assay [1] (30 μg) and in assay [2] (30 μg) was “Sensitive” each time. For the same compound, the zone of inhibition at 30 µg/disc in assay [1] (setting [3]) came out at 32 mm; in assay [2] (setting [4]), 39 mm.

Regarding `CC1(C)S[C@@H]2[C@H](NC(=O)[C@H](N)c3ccccc3)C(=O)N2[C@H]1C(=O)O` [Ampicillin], the Resistant/Sensitive result in assay [1] (10 μg) and in assay [2] (10 μg) was “Resistant” in each case. Further, the zone of inhibition at 10 µg/disc in assay [1] (setting [3]) is 10 mm. Further, the “MIC Results” value in assay [2] (10 μg) was “No Zone”.

Regarding `CC(=O)OCC1=C(C(=O)O)N2C(=O)[C@@H](NC(=O)Cc3cccs3)[C@H]2SC1` [Cephalothin], the Resistant/Sensitive entry in assay [1] (30 μg) and in assay [2] (30 μg) was “Sensitive” in each case. In addition, the zone of inhibition at 30 µg/disc in assay [1] (setting [3]) was determined as 25 mm; in assay [2] (setting [4]), 23 mm.

Take `O=C(N[C@H](CO)[C@H](O)c1ccc([N+](=O)[O-])cc1)C(Cl)Cl` [Chloramphenicol]: the Resistant/Sensitive result in assay [1] (30 μg) and in assay [2] (30 μg) was “Sensitive” in each case. Also, the values for the zone of inhibition at 30 µg/disc in assay [1] (setting [3]) and in assay [2] (setting [4]) were 29 mm and 31 mm, respectively.

Turning to `O=C(O)c1cn(C2CC2)c2cc(N3CCNCC3)c(F)cc2c1=O` [Ciprofloxacin], the Resistant/Sensitive result in assay [2] (10 μg) was “Sensitive”. In assay [2] (setting [4]), the zone of inhibition at 10 µg/disc turned out to be 31 mm.

Regarding `CCC[C@@H]1C[C@@H](C(=O)N[C@@H]([C@H]2O[C@H](SC)[C@H](O)[C@@H](O)[C@H]2O)[C@H](C)Cl)N(C)C1` [Clindamycin], the zone of inhibition at 2 µg/disc came out at 31 mm in assay [1] (Lactobacillus acidophilus, TSPLA1, 2 μg, read-out: MIC Results) and 34 mm in assay [2] (Lactiplantibacillus plantarum, TSPLP1, 2 μg, read-out: MIC Results).

In the case of `CC[C@H]1OC(=O)[C@H](C)[C@@H](O[C@H]2C[C@@](C)(OC)[C@@H](O)[C@H](C)O2)[C@H](C)[C@@H](O[C@@H]2O[C@H](C)C[C@H](N(C)C)[C@H]2O)[C@](C)(O)C[C@@H](C)C(=O)[C@H](C)[C@@H](O)[C@]1(C)O` [Erythromycin], the Resistant/Sensitive entry in assay [1] (15 μg) is reported as “Resistant”; in assay [2] (15 μg) it was “Sensitive”. Besides, the zone of inhibition at 15 µg/disc came out at 14 mm in assay [1] (Lactobacillus acidophilus, TSPLA1, 15 μg, read-out: MIC Results) and 14 mm in assay [2] (Lactiplantibacillus plantarum, TSPLP1, 15 μg, read-out: MIC Results).

Take `COc1cccc(OC)c1C(=O)N[C@@H]1C(=O)N2[C@@H]1SC(C)(C)[C@@H]2C(=O)O` [Methicillin]: the Resistant/Sensitive entry in assay [1] (5 μg) and in assay [2] (5 μg) was “Sensitive” in each case. The zone of inhibition at 5 µg/disc in assay [1] (setting [3]) amounted to 30 mm; in assay [2] (setting [4]), 15 mm.

As for `Cc1onc(-c2ccccc2)c1C(=O)N[C@@H]1C(=O)N2[C@@H]1SC(C)(C)[C@@H]2C(=O)O` [Oxacillin], the “MIC Results” value in assay [1] (1 μg) and in assay [2] (1 μg) was “No Zone” in each case. In addition, the Resistant/Sensitive entry in assay [1] (1 μg) and in assay [2] (1 μg) was “Resistant” in each case.

Consider `CO[C@H]1/C=C/O[C@@]2(C)Oc3c(C)c(O)c4c(O)c(c(/C=N/N5CCN(C)CC5)c(O)c4c3C2=O)NC(=O)/C(C)=C\C=C\[C@H](C)[C@H](O)[C@@H](C)[C@@H](O)[C@@H](C)[C@H](OC(C)=O)[C@@H]1C` [Rifampicin], for which the zone of inhibition at 5 µg/disc came to 35 mm in assay [1] (setting [3]) and 43 mm in assay [2] (setting [4]).

Turning to `[H]/N=C(/N)N[C@H]1[C@H](O)[C@@H](O)[C@H](O[C@@H]2O[C@@H](C)[C@](O)(C=O)[C@H]2O[C@@H]2O[C@@H](CO)[C@H](O)[C@@H](O)[C@@H]2NC)[C@@H](N/C(N)=N\[H])[C@@H]1O` [Streptomycin], the Resistant/Sensitive result in assay [1] (10 μg) and in assay [2] (10 μg) was “Sensitive” in each case. Moreover, the zone of inhibition at 10 µg/disc came to 18 mm in assay [1] (setting [3]) and 20 mm in assay [2] (setting [4]).

As to `CN(C)[C@@H]1C(O)=C(C(N)=O)C(=O)[C@@]2(O)C(O)=C3C(=O)c4c(O)cccc4[C@@](C)(O)[C@H]3C[C@@H]12` [Tetracycline], the zone of inhibition at 30 µg/disc in assay [1] (setting [3]) was found to be 11 mm; in assay [2] (setting [4]), 14 mm.

Consider `CN[C@H](CC(C)C)C(=O)N[C@H]1C(=O)N[C@@H](CC(N)=O)C(=O)N[C@H]2C(=O)N[C@H]3C(=O)N[C@H](C(=O)N[C@H](C(=O)O)c4cc(O)cc(O)c4-c4cc3ccc4O)[C@H](O)c3ccc(c(Cl)c3)Oc3cc2cc(c3O[C@@H]2O[C@H](CO)[C@@H](O)[C@H](O)[C@H]2O[C@H]2C[C@](C)(N)[C@H](O)[C@H](C)O2)Oc2ccc(cc2Cl)[C@H]1O` [Vancomycin], for which, in assay [1] (30 μg), the “MIC Results” value is on record as “No Zone” and the Resistant/Sensitive entry is “Resistant”. In assay [2] (30 μg), the “MIC Results” value is “No Zone” and the Resistant/Sensitive entry is on record as “Resistant”.

For the compound Gentamycin, the “MIC Results” value in assay [1] (10 μg) is reported as 10 mm; in assay [2] (10 μg), 8 mm. Also, the Resistant/Sensitive entry in assay [1] (10 μg) and in assay [2] (10 μg) was “Resistant” throughout.

The values above are taken from patent US10058577B2, “Thermo-stable strains, products and methods thereof” (TRIPHASE PHARMACEUTICALS PVT. LTD., priority 2014, dated 2018).
